Consider eight molecules from PubChem BioAssay (NCI).

Some test systems named below: SK-MEL-2 melanoma; HS 578T breast; HCT-116 colon; BT-549 breast; RXF 393 renal; UACC-62 melanoma; HOP-62 NSCLC; M14 melanoma; HCT-15 colon; UO-31 renal; A498 renal; SK-MEL-5 melanoma; SNB-75 CNS; SK-MEL-28 melanoma; NCI-H226 lung; MOLT-4 leukemia; CAKI-1 renal; TK-10 renal; SF-539 CNS; MDA-N.
Experiment in all cases: inhibition of tumour cell growth, NCI panel, 48 h

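Grown in 96-well plates, cells were treated for 48 hours with each compound at five concentrations. Insufficient inhibition: endpoint recorded as highest concentration tested. TGI: total growth inhibition.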

As for `Nc1nc(NCC2(CO)CC2)cc(=O)[nH]1`, the TGI in the assay with SK-MEL-2 melanoma, in the assay with HS 578T breast, with HCT-116 colon, with BT-549 breast, in the assay on RXF 393 renal and with UACC-62 melanoma was greater than 100 µM throughout. Also, the TGI with HOP-62 NSCLC, in the assay on M14 melanoma, with HCT-15 colon, in the assay with UO-31 renal, in the assay with A498 renal and in the assay on SK-MEL-5 melanoma was greater than 100 µM each time. Also, the TGI with SNB-75 CNS, in the assay on SK-MEL-28 melanoma, in the assay with NCI-H226 lung, in the assay on MOLT-4 leukemia and in the assay on CAKI-1 renal was greater than 100 µM in each case.

As to `CN1C(=O)CSC1=S`, the TGI with SK-MEL-2 melanoma, with HCT-116 colon, in the assay with RXF 393 renal, with TK-10 renal, in the assay with UACC-62 melanoma and with HOP-62 NSCLC was greater than 100 µM in each case. Further, the TGI with M14 melanoma, with HCT-15 colon, with UO-31 renal, in the assay on SF-539 CNS, in the assay with A498 renal and with SK-MEL-5 melanoma was greater than 100 µM in each case. Further, the TGI in the assay on SNB-75 CNS, in the assay on SK-MEL-28 melanoma, in the assay on NCI-H226 lung, in the assay on MOLT-4 leukemia and in the assay on CAKI-1 renal was greater than 100 µM in each case.

As to `CC(CO)CCNc1ncnc2c1ncn2CCC(=O)OC(C)(C)C` (stereo not given), the TGI with HS 578T breast, in the assay on HCT-116 colon, in the assay on RXF 393 renal, in the assay on TK-10 renal, with UACC-62 melanoma and in the assay with HOP-62 NSCLC was greater than 100 µM throughout. Besides, the TGI in the assay on M14 melanoma, with MDA-N, in the assay on UO-31 renal, with SF-539 CNS, in the assay on A498 renal and in the assay on SK-MEL-5 melanoma was greater than 100 µM throughout. In addition, the TGI in the assay with SNB-75 CNS, in the assay on SK-MEL-28 melanoma, in the assay on NCI-H226 lung, in the assay on MOLT-4 leukemia and in the assay with CAKI-1 renal was greater than 100 µM in each case.

With `COC(=O)[C@]12CCC(C)(C)C[C@H]1[C@H]1C(=O)C=C3[C@@]4(C)C=C(C#N)C(=O)C(C)(C)[C@@H]4CC[C@@]3(C)[C@]1(C)CC2`, the TGI was 0.187 µM with SK-MEL-2 melanoma; 2.14 µM in the assay on HS 578T breast; 0.0441 µM in the assay on HCT-116 colon; 0.194 µM in the assay with BT-549 breast; greater than 100 µM in the assay with RXF 393 renal; 0.152 µM in the assay on TK-10 renal. For the same molecule, the TGI was found to be 0.0945 µM in the assay with UACC-62 melanoma; 0.0547 µM in the assay with HOP-62 NSCLC; 0.0876 µM in the assay with M14 melanoma; 0.0392 µM with HCT-15 colon; 1.15 µM in the assay on UO-31 renal; 0.103 µM in the assay with SF-539 CNS. Besides, the TGI in the assay on A498 renal turned out to be 0.114 µM; with SK-MEL-5 melanoma it was 0.109 µM; in the assay on SNB-75 CNS it was 3.62 µM; in the assay on NCI-H226 lung, 0.301 µM; in the assay on MOLT-4 leukemia, 1.56 µM; with CAKI-1 renal, 0.078 µM.

Consider `COc1ccc2c(c1)nc1n2C(c2c(Cl)cccc2Cl)SC1` (stereo not given), for which the TGI is greater than 74 µM with SK-MEL-2 melanoma; 49.4 µM with HS 578T breast; greater than 81.2 µM with HCT-116 colon; greater than 100 µM with BT-549 breast; greater than 70.3 µM in the assay with RXF 393 renal; greater than 100 µM with TK-10 renal. In addition, the TGI in the assay with UACC-62 melanoma was greater than 100 µM; with HOP-62 NSCLC, greater than 71 µM; in the assay with M14 melanoma it was greater than 43.7 µM; in the assay with HCT-15 colon, greater than 100 µM; in the assay with UO-31 renal, greater than 100 µM; with SF-539 CNS it was greater than 100 µM. For the same molecule, the TGI is greater than 100 µM with A498 renal; greater than 100 µM in the assay on SK-MEL-5 melanoma; greater than 75.1 µM in the assay with SNB-75 CNS; greater than 100 µM in the assay with SK-MEL-28 melanoma; greater than 100 µM with NCI-H226 lung; greater than 100 µM in the assay on MOLT-4 leukemia. In the assay on CAKI-1 renal, this molecule registered a TGI greater than 100 µM.

Consider `N#CC(OC1OC(COC2OC(CO)C(O)C(O)C2O)C(O)C(O)C1O)c1ccccc1` (stereo not given), for which the TGI with SK-MEL-2 melanoma, in the assay with HCT-116 colon, with RXF 393 renal, with UACC-62 melanoma, with HOP-62 NSCLC and in the assay on HCT-15 colon was greater than 225 µM in each case. Also, the TGI with UO-31 renal, with SF-539 CNS, in the assay on A498 renal, with SK-MEL-5 melanoma, in the assay with SNB-75 CNS and with SK-MEL-28 melanoma was greater than 225 µM each time. In addition, the TGI in the assay on NCI-H226 lung, with MOLT-4 leukemia and with CAKI-1 renal was greater than 225 µM in each case.

Take `COc1ccc(-c2nc(-c3cc4c(ccc5ccccc54)oc3=O)cs2)cc1`: the TGI in the assay on SK-MEL-2 melanoma, in the assay on HS 578T breast, in the assay on HCT-116 colon, in the assay with BT-549 breast, with RXF 393 renal and with TK-10 renal was greater than 100 µM throughout. The TGI in the assay with UACC-62 melanoma, with HOP-62 NSCLC, in the assay with M14 melanoma, in the assay on HCT-15 colon, in the assay with UO-31 renal and in the assay on SF-539 CNS was greater than 100 µM throughout. Further, the TGI in the assay with SK-MEL-5 melanoma, with SNB-75 CNS, in the assay on SK-MEL-28 melanoma, in the assay on NCI-H226 lung, in the assay with MOLT-4 leukemia and in the assay on CAKI-1 renal was greater than 100 µM each time.

With `COC(=O)c1ccccc1Nc1nc(-c2cccs2)nc2cc(OC)c(OC)cc12`, the TGI is greater than 100 µM in the assay on SK-MEL-2 melanoma; greater than 100 µM with HS 578T breast; greater than 100 µM in the assay with HCT-116 colon; greater than 100 µM in the assay on BT-549 breast; greater than 100 µM in the assay with RXF 393 renal; 70.2 µM with TK-10 renal. Moreover, the TGI in the assay on UACC-62 melanoma was greater than 100 µM; in the assay on HOP-62 NSCLC, 42.1 µM; in the assay with M14 melanoma it was greater than 100 µM; in the assay with HCT-15 colon, greater than 100 µM; with UO-31 renal, greater than 100 µM; with SF-539 CNS it was 85.9 µM. Also, the TGI is greater than 100 µM in the assay with A498 renal; greater than 100 µM in the assay with SK-MEL-5 melanoma; greater than 100 µM with SNB-75 CNS; greater than 100 µM with SK-MEL-28 melanoma; 89.4 µM with NCI-H226 lung; greater than 100 µM in the assay on MOLT-4 leukemia. The molecule also gave a TGI with CAKI-1 renal greater than 100 µM.
